Laboratory results from ChEMBL document CHEMBL4251615, “Discovery of anilino-furo[2,3-d]pyrimidine derivatives as dual inhibitors of EGFR/HER2 tyrosine kinase and their anticancer activity” (Eur J Med Chem, 2018).

Tests used:
MDA-MB-435 = test: Growth inhibition of human MDA-MB-435 cells assessed as cell growth at 10 uM incubated for 48 hrs by sulforhodamine B assay relative to control; type: functional; details: MDA-MB-435, 48 h, read-out: Activity
[1] = molecular target: Receptor tyrosine-protein kinase erbB-2 (Homo sapiens) (UniProt P04626); test: Inhibition of recombinant human N-terminal GST-tagged HER2 (679 to 1255 residues) expressed in baculovirus infected Sf9 cells at 10 uM using poly[Glu:Tyr] (4:1) as substrate after 40 mins by Kinase-Glo plus luminescence assay relative to control
Receptor tyrosine-protein kinase erbB-2 (Homo sapiens), sequence (P04626 whole entry, the tested form may be a part): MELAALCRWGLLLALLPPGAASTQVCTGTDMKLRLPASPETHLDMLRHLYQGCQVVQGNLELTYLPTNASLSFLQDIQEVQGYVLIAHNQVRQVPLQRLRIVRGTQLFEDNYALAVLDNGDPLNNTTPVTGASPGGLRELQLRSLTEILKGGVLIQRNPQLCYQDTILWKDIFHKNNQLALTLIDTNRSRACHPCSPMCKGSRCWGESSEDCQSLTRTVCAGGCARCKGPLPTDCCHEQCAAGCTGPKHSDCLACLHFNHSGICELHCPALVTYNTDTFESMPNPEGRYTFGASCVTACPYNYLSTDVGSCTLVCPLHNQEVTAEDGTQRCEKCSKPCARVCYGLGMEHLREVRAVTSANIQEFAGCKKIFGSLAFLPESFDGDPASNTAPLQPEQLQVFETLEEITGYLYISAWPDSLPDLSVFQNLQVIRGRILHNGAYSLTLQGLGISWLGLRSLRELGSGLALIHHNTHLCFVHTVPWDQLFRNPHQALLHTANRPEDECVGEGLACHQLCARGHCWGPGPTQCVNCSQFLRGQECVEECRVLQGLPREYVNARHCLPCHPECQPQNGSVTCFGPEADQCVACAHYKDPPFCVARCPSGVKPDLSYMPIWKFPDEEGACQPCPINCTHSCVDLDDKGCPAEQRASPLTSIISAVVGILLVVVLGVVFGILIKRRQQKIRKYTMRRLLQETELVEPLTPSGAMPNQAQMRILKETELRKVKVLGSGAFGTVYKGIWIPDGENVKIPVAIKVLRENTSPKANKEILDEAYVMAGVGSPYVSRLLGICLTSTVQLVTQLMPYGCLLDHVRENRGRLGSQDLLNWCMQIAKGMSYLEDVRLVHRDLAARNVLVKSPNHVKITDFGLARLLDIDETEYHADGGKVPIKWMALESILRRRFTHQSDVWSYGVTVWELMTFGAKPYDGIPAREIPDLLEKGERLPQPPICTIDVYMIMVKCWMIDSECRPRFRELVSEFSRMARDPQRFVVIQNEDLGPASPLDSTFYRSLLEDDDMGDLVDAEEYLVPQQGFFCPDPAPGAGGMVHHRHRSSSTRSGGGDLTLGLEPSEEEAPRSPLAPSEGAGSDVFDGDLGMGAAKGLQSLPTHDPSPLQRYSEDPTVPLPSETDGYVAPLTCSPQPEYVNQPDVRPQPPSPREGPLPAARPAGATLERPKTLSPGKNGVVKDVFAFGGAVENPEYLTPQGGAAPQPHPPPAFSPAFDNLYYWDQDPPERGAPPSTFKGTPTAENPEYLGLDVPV

Malme-3M = test: Growth inhibition of human MALME-3M cells assessed as cell growth at 10 uM incubated for 48 hrs by sulforhodamine B assay relative to control; type: functional; details: read-out: Activity
U-251 = test: Growth inhibition of human U251 cells assessed as cell growth at 10 uM incubated for 48 hrs by sulforhodamine B assay relative to control; type: functional; details: U-251, 48 h, read-out: Activity
SF-539 = test: Growth inhibition of human SF539 cells assessed as cell growth at 10 uM incubated for 48 hrs by sulforhodamine B assay relative to control; type: functional; details: SF-539, 48 h, read-out: Activity
SW-620 = test: Growth inhibition of human SW620 cells assessed as cell growth at 10 uM incubated for 48 hrs by sulforhodamine B assay relative to control; type: functional; details: SW-620, 48 h, read-out: Activity
MCF7 = test: Growth inhibition of human MCF7 cells assessed as cell growth at 10 uM incubated for 48 hrs by sulforhodamine B assay relative to control; type: functional; details: MCF7, 48 h, read-out: Activity
MDA-MB-468 = test: Growth inhibition of human MDA-MB-468 cells assessed as cell growth at 10 uM incubated for 48 hrs by sulforhodamine B assay relative to control; type: functional; details: MDA-MB-468, 48 h, read-out: Activity
BT-549 = test: Growth inhibition of human BT549 cells assessed as cell growth at 10 uM incubated for 48 hrs by sulforhodamine B assay relative to control; type: functional; details: BT-549, 48 h, read-out: Activity
NCI-H322M = test: Growth inhibition of human NCI-H322M cells assessed as cell growth at 10 uM incubated for 48 hrs by sulforhodamine B assay relative to control; type: functional; details: read-out: Activity
EKVX = test: Growth inhibition of human EKVX cells assessed as cell growth at 10 uM incubated for 48 hrs by sulforhodamine B assay relative to control; type: functional; details: read-out: Activity
K562 = test: Growth inhibition of human K562 cells assessed as cell growth at 10 uM incubated for 48 hrs by sulforhodamine B assay relative to control; type: functional; details: K562, 48 h, read-out: Activity
M14 = test: Growth inhibition of human M14 cells assessed as cell growth at 10 uM incubated for 48 hrs by sulforhodamine B assay relative to control; type: functional; details: M14, 48 h, read-out: Activity
HCT-15 = test: Growth inhibition of human HCT15 cells assessed as cell growth at 10 uM incubated for 48 hrs by sulforhodamine B assay relative to control; type: functional; details: HCT-15, 48 h, read-out: Activity
OVCAR-5 = test: Growth inhibition of human OVCAR5 cells assessed as cell growth at 10 uM incubated for 48 hrs by sulforhodamine B assay relative to control; type: functional; details: OVCAR-5, 48 h, read-out: Activity
MOLT-4 = test: Growth inhibition of human MOLT4 cells assessed as cell growth at 10 uM incubated for 48 hrs by sulforhodamine B assay relative to control; type: functional; details: MOLT-4, 48 h, read-out: Activity
OVCAR-4 = test: Growth inhibition of human OVCAR4 cells assessed as cell growth at 10 uM incubated for 48 hrs by sulforhodamine B assay relative to control; type: functional; details: OVCAR-4, 48 h, read-out: Activity
A549 = test: Growth inhibition of human A549/ATCC cells assessed as cell growth at 10 uM incubated for 48 hrs by sulforhodamine B assay relative to control; type: functional; details: A549, 48 h, read-out: Activity
CCRF-CEM = test: Growth inhibition of human CCRF-CEM cells assessed as cell growth at 10 uM incubated for 48 hrs by sulforhodamine B assay relative to control; type: functional; details: read-out: Activity
SK-OV-3 = test: Growth inhibition of human SKOV3 cells assessed as cell growth at 10 uM incubated for 48 hrs by sulforhodamine B assay relative to control; type: functional; details: SK-OV-3, 48 h, read-out: Activity
A498 = test: Growth inhibition of human A498 cells assessed as cell growth at 10 uM incubated for 48 hrs by sulforhodamine B assay relative to control; type: functional; details: A498, 48 h, read-out: Activity
Hs-578T = test: Growth inhibition of human Hs 578T cells assessed as cell growth at 10 uM incubated for 48 hrs by sulforhodamine B assay relative to control; type: functional; details: read-out: Activity
PC-3 = test: Growth inhibition of human PC3 cells assessed as cell growth at 10 uM incubated for 48 hrs by sulforhodamine B assay relative to control; type: functional; details: PC-3, 48 h, read-out: Activity
RPMI-8226 = test: Growth inhibition of human RPMI8226 cells assessed as cell growth at 10 uM incubated for 48 hrs by sulforhodamine B assay relative to control; type: functional; details: RPMI-8226, 48 h, read-out: Activity
UACC-62 = test: Growth inhibition of human UACC62 cells assessed as cell growth at 10 uM incubated for 48 hrs by sulforhodamine B assay relative to control; type: functional; details: UACC-62, 48 h, read-out: Activity
CAKI-1 = test: Growth inhibition of human Caki1 cells assessed as cell growth at 10 uM incubated for 48 hrs by sulforhodamine B assay relative to control; type: functional; details: CAKI-1, 48 h, read-out: Activity
SF-268 = test: Growth inhibition of human SF268 cells assessed as cell growth at 10 uM incubated for 48 hrs by sulforhodamine B assay relative to control; type: functional; details: SF-268, 48 h, read-out: Activity
HCC 2998 = test: Growth inhibition of human HCC2998 cells assessed as cell growth at 10 uM incubated for 48 hrs by sulforhodamine B assay relative to control; type: functional; details: HCC 2998, 48 h, read-out: Activity

SMILES | growth at 10 µM (MDA-MB-435) [%] | inhibition [1] [%] | growth at 10 µM (Malme-3M) [%] | growth at 10 µM (U-251) [%] | growth at 10 µM (SF-539) [%] | growth at 10 µM (SW-620) [%] | growth at 10 µM (MCF7) [%] | growth at 10 µM (MDA-MB-468) [%] | growth at 10 µM (BT-549) [%] | growth at 10 µM (NCI-H322M) [%] | growth at 10 µM (EKVX) [%] | growth at 10 µM (K562) [%] | growth at 10 µM (M14) [%] | growth at 10 µM (HCT-15) [%] | growth at 10 µM (OVCAR-5) [%] | growth at 10 µM (MOLT-4) [%] | growth at 10 µM (OVCAR-4) [%] | growth at 10 µM (A549) [%] | growth at 10 µM (CCRF-CEM) [%] | growth at 10 µM (SK-OV-3) [%] | further results
CCOC(=O)c1c(C)oc2ncnc(Nc3ccc(OCc4cccc(F)c4)cc3)c12 | 103 | 19 | 125 | 96.1 | 94.4 | 88.9 | 99.3 | 90.6 | 100 | 101 | 94.4 | 107 | 97.5 | 98.5 | 94 | 107 | 102 | 76.4 | 91.2 | 104 | growth at 10 µM (A498): 91.6%; growth at 10 µM (Hs-578T): 87.7%; growth at 10 µM (PC-3): 75%; growth at 10 µM (RPMI-8226): 104%; growth at 10 µM (UACC-62): 80.3%; growth at 10 µM (CAKI-1): 80.1%; growth at 10 µM (SF-268): 98.8%; growth at 10 µM (HCC 2998): 108%
Cc1oc2ncnc(Nc3ccc(OCc4cccc(F)c4)c(Cl)c3)c2c1C(=O)NCCO | 62.6 | 6 | 52.3 | 48.1 | 47.4 | 93.4 | 62.9 | 57.4 | 61.7 | 86.3 | 47.8 | 33.2 | 66.9 | 61.1 | 96.9 | 68.5 | 66.9 | 53.5 | 89.5 | 74.2 | growth at 10 µM (A498): 81.6%; growth at 10 µM (Hs-578T): 46.1%; growth at 10 µM (PC-3): 57.5%; growth at 10 µM (RPMI-8226): 70.2%; growth at 10 µM (UACC-62): 55%; growth at 10 µM (CAKI-1): 74.2%; growth at 10 µM (SF-268): 47.2%; growth at 10 µM (HCC 2998): 79.1%
CCOC(=O)c1c(C)oc2ncnc(Nc3ccc(OCc4ccc(Cl)cc4)cc3)c12 | 104 | 18 | 123 | 107 | 98.2 | 106 | 102 | 89.8 | 96.1 | 107 | 102 | 83.8 | 102 | 108 | 100 | 109 | 104 | 86.5 | 110 | 88 | growth at 10 µM (A498): 91.7%; growth at 10 µM (Hs-578T): 111%; growth at 10 µM (PC-3): 100%; growth at 10 µM (RPMI-8226): 111%; growth at 10 µM (UACC-62): 87.7%; growth at 10 µM (CAKI-1): 94%; growth at 10 µM (SF-268): 109%; growth at 10 µM (HCC 2998): 108%
